Test results published in PubChem BioAssay (NCI).
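Results reflect a 48-hour exposure of cells in 96-well plates to compound at five concentrations. Abbreviation: GI50, concentration required for 50% inhibition of growth. At the TGI there is no net growth.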

Experiments:
Test in all cases: inhibition of tumour cell growth, NCI panel, 48 h
DMS 273 small cell lung = test system: DMS 273 small cell lung
SN12C renal = test system: SN12C renal
UACC-257 melanoma = test system: UACC-257 melanoma
SK-MEL-28 melanoma = test system: SK-MEL-28 melanoma
KM20L2 colon = test system: KM20L2 colon
KM12 colon = test system: KM12 colon
DLD-1 colon = test system: DLD-1 colon
CAKI-1 renal = test system: CAKI-1 renal
MDA-MB-231 breast = test system: MDA-MB-231 breast
BT-549 breast = test system: BT-549 breast

Work on `COc1ccc(-c2cc3ccccc3[nH]c2=O)cc1OC` yielded a TGI (DMS 273 small cell lung) of over 100 µM, a TGI (SN12C renal) of over 100 µM and a TGI (UACC-257 melanoma) of over 100 µM. It also gave a TGI (SK-MEL-28 melanoma) of over 100 µM, a TGI (KM20L2 colon) of over 100 µM and a TGI (KM12 colon) of over 100 µM. The TGI (DLD-1 colon) was over 100 µM and the TGI (CAKI-1 renal) was over 100 µM.

For `O=C1CC(C2(O)C(=O)Nc3ccc([N+](=O)[O-])cc32)c2ccccc21` (configuration not stated), the TGI (DMS 273 small cell lung) was 41.4 µM, the TGI (SN12C renal) was 80.5 µM and the TGI (UACC-257 melanoma) was over 100 µM. The TGI (SK-MEL-28 melanoma) was 62 µM, the TGI (KM12 colon) was 98.6 µM and the TGI (DLD-1 colon) was over 100 µM.

`O=C1C(Cl)=C(Cl)C(=O)N1c1ccc(Cl)c(Cl)c1Cl` was tested, and the TGI (DMS 273 small cell lung) was over 100 µM, the TGI (SN12C renal) was over 100 µM and the TGI (UACC-257 melanoma) was over 100 µM. It also gave a TGI (SK-MEL-28 melanoma) of over 100 µM, a TGI (KM20L2 colon) of over 100 µM and a TGI (KM12 colon) of over 100 µM. It also gave a TGI (DLD-1 colon) of over 100 µM and a TGI (CAKI-1 renal) of 56.2 µM.

With `COc1cc2c(cc1OC)C(C(CBr)CBr)N(C1CCCC1)CC2` (configuration not stated) the TGI (DMS 273 small cell lung) was over 100 µM, the TGI (UACC-257 melanoma) was over 100 µM and the TGI (SK-MEL-28 melanoma) was over 100 µM. It also gave a TGI (KM12 colon) of over 100 µM, a TGI (DLD-1 colon) of over 100 µM and a TGI (CAKI-1 renal) of over 100 µM.

In the case of `COc1ccc(N2C(=O)[C@@H](N=[N+]=[N-])[C@@H]2[C@H]2COC(C)(C)O2)cc1`, the TGI (DMS 273 small cell lung) is reported as over 100 µM, the TGI (SN12C renal) is reported as over 100 µM and the TGI (UACC-257 melanoma) is reported as over 100 µM. It also gave a TGI (SK-MEL-28 melanoma) of over 100 µM, a TGI (KM20L2 colon) of over 100 µM and a TGI (KM12 colon) of over 100 µM. It also gave a TGI (CAKI-1 renal) of over 100 µM.

In the case of `Cc1cc(=O)[nH]c(NNC(C#N)c2ccccc2O)n1` (configuration not stated), the TGI (DMS 273 small cell lung) is reported as over 100 µM, the TGI (SN12C renal) is reported as over 100 µM and the TGI (UACC-257 melanoma) is reported as over 100 µM. For the same compound, the TGI (SK-MEL-28 melanoma) was over 100 µM, the TGI (KM20L2 colon) was over 100 µM and the TGI (KM12 colon) was over 100 µM. It also gave a TGI (DLD-1 colon) of over 100 µM and a TGI (CAKI-1 renal) of 93.6 µM.

In the case of `Cc1ccccc1-n1c(=S)[nH]c2c(sc(=O)n2-c2ccccc2C)c1=O`, the TGI (DMS 273 small cell lung) is reported as over 100 µM, the TGI (SN12C renal) is reported as over 100 µM and the TGI (UACC-257 melanoma) is reported as over 100 µM. The TGI (SK-MEL-28 melanoma) was over 100 µM, the TGI (KM20L2 colon) was over 100 µM and the TGI (KM12 colon) was over 100 µM. The TGI (DLD-1 colon) was over 100 µM and the TGI (CAKI-1 renal) was over 100 µM.

With `CCCCCCCC(=O)[O-].CCCCCCCC(=O)[O-].N.N.N.N.[Co+3].[O-][Cl+3]([O-])([O-])[O-]` the GI50 (SN12C renal) was over 100 µM, the TGI (SN12C renal) was over 100 µM and the GI50 (UACC-257 melanoma) was over 100 µM. For the same compound, the TGI (UACC-257 melanoma) was over 100 µM, the GI50 (SK-MEL-28 melanoma) was over 100 µM and the TGI (SK-MEL-28 melanoma) was over 100 µM. For the same compound, the GI50 (KM12 colon) was over 100 µM, the TGI (KM12 colon) was over 100 µM and the GI50 (DLD-1 colon) was over 100 µM. For the same compound, the TGI (DLD-1 colon) was over 100 µM.

For `COc1ccc(NC(=O)CC(=O)N/N=C(\C)c2cc3ccccc3oc2=O)cc1`, the TGI (DMS 273 small cell lung) was over 100 µM, the TGI (SN12C renal) was over 100 µM and the TGI (UACC-257 melanoma) was over 100 µM. It also gave a TGI (SK-MEL-28 melanoma) of over 100 µM, a TGI (KM20L2 colon) of over 100 µM and a TGI (KM12 colon) of over 100 µM. It also gave a TGI (DLD-1 colon) of over 100 µM.

`O=C1NC(=O)C(=Cc2cn(Cc3ccccc3)c3ccccc23)C(=O)N1` was tested, and the GI50 (MDA-MB-231 breast) was 15.2 µM, the TGI (MDA-MB-231 breast) was 43.9 µM and the GI50 (SN12C renal) was 13.5 µM. The TGI (SN12C renal) was 40 µM, the GI50 (UACC-257 melanoma) was 7.07 µM and the TGI (UACC-257 melanoma) was 35.1 µM. It also gave a GI50 (SK-MEL-28 melanoma) of 15 µM, a TGI (SK-MEL-28 melanoma) of 30.6 µM and a GI50 (KM12 colon) of 15.9 µM. The TGI (KM12 colon) was 31.5 µM, the GI50 (BT-549 breast) was 15.4 µM and the TGI (BT-549 breast) was 50.1 µM. For the same compound, the GI50 (CAKI-1 renal) was 2.15 µM and the TGI (CAKI-1 renal) was 10.5 µM.

`COc1ccc(Br)c(CN2CCc3ccccc32)c1OS(=O)(=O)c1ccc(C)cc1` gave a TGI (SN12C renal) of over 100 µM, a TGI (UACC-257 melanoma) of over 100 µM and a TGI (SK-MEL-28 melanoma) of over 100 µM. The TGI (KM12 colon) was over 100 µM and the TGI (DLD-1 colon) was over 100 µM.
